According to patent publication US20240285534A1, “CO-AMORPHOUS SOLID FORMS OF FLAVONOIDS” (ALPARIS, S.A. de C.V., priority 2022, published 2024):

Columns and labels:
[1] = Solubility test in water (supersaturated solutions); type: physicochemical; conditions: 22 mg added to 0.5 ml of water
Protocol: Supersaturated solutions of naringenin and NRG:ARG 1:3 NSF were prepared from 0.5 ml of water.

[2] = Wen et al., Molecules 2010; cited from earlier work

dissolution in water [1]: practically it did not dissolve at all
SMILES: O=C1C[C@@H](c2ccc(O)cc2)Oc2cc(O)cc(O)c21 [naringenin, Naringenin]
reported solubility [2]: 4.38 µg/mL
